Measurements taken from patent publication US7956190B2, “Benzimidazole amido derivatives as kinase inhibitors” (Hoffmann-La Roche Inc., priority 2007, dated 2011).

Tested on: HCT 116 cells
Test: CellTiter-Glo Assay in HCT 116 Cells
Assay type: cell-based
Details: HCT 116 human colon carcinoma cells, 5 days (120 h) incubation, CellTiter-Glo luminescence, tested in triplicate
Excerpt: CellTiter-Glo™ Assay in HCT 116 Cells
The CellTiter-Glo™ Luminescent Cell Viability Assay (Promega) is a homogeneous method of determining the number of viable cells in culture based on quantitation of the ATP present, which signals the presence of metabolically active cells.
HCT 116 cells (human colon carcinoma, ATCC-No. CCl-247) were cultivated in RPMI 1640 medium with GlutaMAX™ I (Invitrogen, Cat-No. 61870-010), 5% Fetal Calf Serum (FCS, Sigma Cat-No. F4135 (FBS)); 100 Units/ml penicillin/100 μg/ml streptomycin (=Pen/Strep from Invitrogen Cat. No. 15140). For the assay the cells were seeded in 384 well plates, 1000 cells per well, in the same medium. The next day the test compounds were added in various concentrations ranging from 30 μM to 0.0015 μM (10 concentrations, 1:3 diluted). After 5 days the CellTiter-Glo™ assay was done according to the instructions of the manufacturer (CellTiter-Glo™ Luminescent Cell Viability Assay, from Promega). In brief: the cell-plate was equilibrated to room temperature for approximately 30 minutes and than the CellTiter-Glo™ reagent was added. The contents were carefully mixed for 15 minutes to induce cell lysis. After 45 minutes the luminescent signal was measured in Victor 2, (scanning multiwell spectrophotometer, Wallac).
• Medium: RPMI 1640 with GlutaMAX™ I (Invitrogen, Cat-Nr. 61870), 5% FCS (Sigma Cat.-No. F4135), Pen/Strep (Invitrogen, Cat No. 15140). • HCT116 (ATCC-No. CCl-247): 1000 cells in 60 μl per well of 384 well plate (Greiner 781098, μClear-plate white) • After seeding incubate plates 24 h at 37° C., 5% CO2 2nd. Day: Induction (Treatment with Compounds, 10 Concentrations):
In order to achieve a final concentration of 30 μM as highest concentration 3.5 μl of 10 mM compound stock solution were added directly to 163 μl media. Then step e) of the dilution procedure described below, was followed.

SMILES | IC50 [µM]
N#Cc1cccc(C(=O)Nc2cccc3[nH]c(-c4c(NCc5ccccn5)cc[nH]c4=O)nc23)c1 [Example A-1, 3-Cyano-N-(2-[2-oxo-4-1 (pyridin-2-ylmethyl)-amino]-1,2-dihydro-pyridin-1H-benzoimidazol-4-yl)-benzamide] | 1.36
COc1ccc(C(=O)Nc2cccc3nc(-c4c(NCc5ccccc5)cc[nH]c4=O)[nH]c23)cc1 [Example A-3, N-[2-(4-Benzylamino-2-oxo-1,2-dihydro-pyridin-3-yl)-3H-benzoimidazol-4-yl]-4-methoxy-benzamide] | 1 to 15
O=C(Nc1cccc2nc(-c3c(NCc4ccccc4)cc[nH]c3=O)[nH]c12)c1ccccc1 [Example A-4, N-[2-(4-Benzylamino-2-oxo-1,2-dihydro-pyridin-3-yl)-3H-benzoimidazol-4-yl]-benzamide] | 1 to 15
O=C(Nc1cccc2nc(-c3c(NCc4ccccn4)cc[nH]c3=O)[nH]c12)c1ccccc1 [Example A-5, N-(2-{2-oxo-4-[(pyridin-2-ylmethyl)-amino]-1,2-dihydro-pyridin-3-yl}-3H-benzoimidazol-4-yl)-benzamide] | 1 to 15
COc1ccc(C(=O)Nc2cccc3nc(-c4c(NCc5ccccn5)cc[nH]c4=O)[nH]c23)cc1 [Example A-6, 4-Methoxy-N-(2-{2-oxo-4-[(pyridin-2-ylmethyl)-amino]-1,2-dihydro-pyridin-3-yl}-3H-benzoimidazol-4-yl)-benzamide] | 1 to 15
O=C(Nc1cccc2nc(-c3c(NCc4ccccn4)cc[nH]c3=O)[nH]c12)c1ccc(Cl)cc1 [Example A-7, 4-Chloro-N-(2-{2-oxo-4-[(pyridin-2-ylmethyl)-amino]-1,2-dihydro-pyridin-3-yl}-3H-benzoimidazol-4-yl)-benzamide] | 1 to 15
COc1ccc(C(=O)Nc2cccc3nc(-c4c(NCc5cccc(Cl)c5)cc[nH]c4=O)[nH]c23)cc1 [Example A-8, N-{2-[4-(3-Chloro-benzylamino)-2-oxo-1,2-dihydro-pyridin-3-yl]-3H-benzoimidazol-4-yl}-4-methoxy-benzamide] | 1 to 15
O=C(Nc1cccc2nc(-c3c(NCC(O)c4ccccc4)cc[nH]c3=O)[nH]c12)c1cccc(Cl)c1 (stereo not drawn) [Example A-11, 3-Chloro-N-[2-[4-(2-hydroxy-2-phenyl-ethylamino)-2-oxo-1,2-dihydro-pyridin-3-yl]-3H-benzoimidazol-4-yl]-benzamide] | 1 to 15
O=C(Nc1cccc2nc(-c3c(NC[C@@H](O)c4ccccc4)cc[nH]c3=O)[nH]c12)c1ccc(F)cc1 [Example A-12, 4-Fluoro-N-{2-[4-((S)-2-hydroxy-2-phenyl-ethylamino)-2-oxo-1,2-dihydro-pyridin-3-yl]-3H-benzoimidazol-4-yl}-benzamide] | 1 to 15
O=C(Nc1cccc2nc(-c3c(NC[C@@H](O)c4ccccc4)cc[nH]c3=O)[nH]c12)c1ccc(C(F)(F)F)cc1 [Example A-15, N-{2-[4-((S)-2-Hydroxy-2-phenyl-ethylamino)-2-oxo-1,2-dihydro-pyridin-3-yl]-3H-benzoimidazol-4-yl}-4-trifluoromethyl-benzamide] | 1 to 15
COc1ccccc1C(=O)Nc1cccc2nc(-c3c(NCc4ccccc4)cc[nH]c3=O)[nH]c12 [Example A-16, N-[2-(4-Benzylamino-2-oxo-1,2-dihydro-pyridin-3-yl)-3H-benzoimidazol-4-yl]-2-methoxy-benzamide] | 1 to 15
O=C(Nc1cccc2nc(-c3c(NCc4ccccc4)cc[nH]c3=O)[nH]c12)c1ccccc1Cl [Example A-17, N-[2-(4-Benzylamino-2-oxo-1,2-dihydro-pyridin-3-yl)-3H-benzoimidazol-4-yl]-2-chloro-benzamide] | 1 to 15
O=C(Nc1cccc2nc(-c3c(NCc4ccccc4)cc[nH]c3=O)[nH]c12)c1ccc(Cl)cc1 [Example A-18, N-[2-(4-Benzylamino-2-oxo-1,2-dihydro-pyridin-3-yl)-3H-benzoimidazol-4-yl]-4-chloro-benzamide] | 1 to 15

The remaining lines, values ahead:

IC50 [µM] | SMILES
1 to 15 | O=C(Cc1ccccc1)Nc1cccc2nc(-c3c(NC[C@@H](O)c4ccccc4)cc[nH]c3=O)[nH]c12 [Example B-1, N-{2-[4-((S)-2-Hydroxy-2-phenyl-ethylamino)-2-oxo-1,2-dihydro-pyridin-3-yl]-3H-benzoimidazol-4-yl}-2-phenyl-acetamide]
1 to 15 | O=C(Nc1cccc2nc(-c3c(NCc4cccc(Cl)c4)cc[nH]c3=O)[nH]c12)c1ccccc1 [Example B-2, N-{2-[4-(3-Chloro-benzylamino)-2-oxo-1,2-dihydro-pyridin-3-yl]-3H-benzoimidazol-4-yl}-benzamide]
1 to 15 | CC(C)(C)C(=O)Nc1cccc2nc(-c3c(NC[C@@H](O)c4ccccc4)cc[nH]c3=O)[nH]c12 [Example B-3, N-{2-[4-((S)-2-Hydroxy-2-phenyl-ethylamino)-2-oxo-1,2-dihydro-pyridin-3-yl]-3H-benzoimidazol-4-yl}-2,2-dimethyl-propionamide]
1 to 15 | O=C(Nc1cccc2nc(-c3c(NC[C@@H](O)c4ccccc4)cc[nH]c3=O)[nH]c12)c1cccc(C(F)(F)F)c1 [Example B-5, N-{2-[4-((S)-2-Hydroxy-2-phenyl-ethylamino)-2-oxo-1,2-dihydro-pyridin-3-yl]-3H-benzoimidazol-4-yl}-3-trifluoromethyl-benzamide]
1 to 15 | O=C(COc1ccccc1)Nc1cccc2nc(-c3c(NC[C@@H](O)c4ccccc4)cc[nH]c3=O)[nH]c12 [Example B-6, N-{2-[4-((S)-2-Hydroxy-2-phenyl-ethylamino)-2-oxo-1,2-dihydro-pyridin-3-yl]-3H-benzoimidazol-4-yl}-2-phenoxy-acetamide]
1 to 15 | O=C(Nc1cccc2nc(-c3c(NC[C@@H](O)c4ccccc4)cc[nH]c3=O)[nH]c12)C1CC1 [Example B-8, Cyclopropanecarboxylic acid {2-[4-((S)-2-hydroxy-2-phenyl-ethylamino)-2-oxo-1,2-dihydro-pyridin-3-yl]-3H-benzoimidazol-4-yl}-amide]
1 to 15 | O=C(Nc1cccc2nc(-c3c(NC[C@@H](O)c4ccccc4)cc[nH]c3=O)[nH]c12)c1ccccc1F [Example B-9, 2-Fluoro-N-{2-[4-((S)-2-hydroxy-2-phenyl-ethylamino)-2-oxo-1,2-dihydro-pyridin-3-yl]-3H-benzoimidazol-4-yl}-benzamide]
1 to 15 | O=C(Nc1cccc2nc(-c3c(NCC(O)c4ccccc4)cc[nH]c3=O)[nH]c12)c1ccccc1Cl (stereo not drawn) [Example B-10, 2-Chloro-N-{2-[4-(2-hydroxy-2-phenyl-ethylamino)-2-oxo-1,2-dihydro-pyridin-3-yl]-3H-benzoimidazol-4-yl}-benzamide]
1 to 15 | O=C(COc1ccc(Cl)cc1)Nc1cccc2nc(-c3c(NC[C@@H](O)c4ccccc4)cc[nH]c3=O)[nH]c12 [Example B-11, 2-(4-Chloro-phenoxy)-N-{2-[4-((S)-2-hydroxy-2-phenyl-ethylamino)-2-oxo-1,2-dihydro-pyridin-3-yl]-3H-benzoimidazol-4-yl}-acetamide]
1 to 15 | N#Cc1cccc(C(=O)Nc2cccc3nc(-c4c(NC[C@@H](O)c5ccccc5)cc[nH]c4=O)[nH]c23)c1 [Example B-12, 3-Cyano-N-{2-[4-((S)-2-hydroxy-2-phenyl-ethylamino)-2-oxo-1,2-dihydro-pyridin-3-yl]-3H-benzoimidazol-4-yl}-benzamide]
1 to 15 | COCC(=O)Nc1cccc2nc(-c3c(NC[C@@H](O)c4ccccc4)cc[nH]c3=O)[nH]c12 [Example B-13, N-{2-[4-((S)-2-Hydroxy-2-phenyl-ethylamino)-2-oxo-1,2-dihydro-pyridin-3-yl]-3H-benzoimidazol-4-yl}-2-methoxy-acetamide]
6.92 | O=C(Nc1cccc2nc(-c3c(NC[C@@H](O)c4ccccc4)cc[nH]c3=O)[nH]c12)c1cccc(F)c1 [Example B-15, 3-Fluoro-N-{2-[4-((S)-2-hydroxy-2-phenyl-ethylamino)-2-oxo-1,2-dihydro-pyridin-3-yl]-3H-benzoimidazol-4-yl}-benzamide]
1 to 15 | O=C(Nc1cccc2nc(-c3c(NC[C@@H](O)c4ccccc4)cc[nH]c3=O)[nH]c12)c1ccc(Cl)cc1Cl [Example B-16, 2,4-Dichloro-N-{2-[4-((S)-2-hydroxy-2-phenyl-ethylamino)-2-oxo-1,2-dihydro-pyridin-3-yl}-3H-benzoimidazol-4-yl]-benzamide]
1 to 15 | COc1cccc(C(=O)Nc2cccc3nc(-c4c(NC[C@@H](O)c5ccccc5)cc[nH]c4=O)[nH]c23)c1 [Example B-18, N-{2-[4-((S)-2-Hydroxy-2-phenyl-ethylamino)-2-oxo-1,2-dihydro-pyridin-3-yl]-3H-benzoimidazol-4-yl}-3-methoxy-benzamide]
